We go through 4 compounds from ChEMBL document CHEMBL1629693, “Intracellular concentrations of posaconazole in different compartments of peripheral blood” (Antimicrob Agents Chemother, 2010).

A short description of data set [1]: Drug uptake in human PMNC assessed as increase in intracellular compound concentration by radiometric assay relative to control. The data set is classed as ADME, cell-based.
Data set [2] is described as follows: Ratio of cellular uptake in alveolar macrophages to plasma of healthy human.
Data set [3] in a line: Ratio of intracellular to extracellular drug uptake in alveolar macrophages of New Zealand white rabbit infected with Mycobacterium bovis at 1 ug/ml in presence of 100% serum. The data set is classed as ADME, cell-based, Oryctolagus cuniculus. Conditions: macrophage.
Data set [4] in a line: Ratio of intracellular to extracellular drug uptake in RBC of New Zealand white rabbit infected with Mycobacterium bovis at 1 ug/ml. The data set is classed as ADME, cell-based, Oryctolagus cuniculus. Conditions: erythrocyte.
Data set [5] is described as follows: Ratio of intracellular to extracellular drug uptake in alveolar macrophages of New Zealand white rabbit infected with Mycobacterium bovis at 1 ug/ml in presence of 5% serum. The format is ADME, cell-based, Oryctolagus cuniculus. The conditions noted are these: macrophage.
Data set [6] can be described thus: Ratio of intracellular to extracellular drug uptake in alveolar macrophages of New Zealand white rabbit infected with Mycobacterium bovis at 1 ug/ml. The data set is classed as ADME, cell-based, Oryctolagus cuniculus. Conditions: macrophage.
A short description of data set [7]: Ratio of cellular uptake in alveolar macrophages to plasma of healthy human at 14 doses of […], twice daily. The format is ADME, organism-based.
Data set [8] in a line: Ratio of intracellular to extracellular cellular uptake in RBC of patient with hematological malignancies at 200 mg administered 3 to 4 times a day measured by liquid chromatography-tandem mass spectroscopy. The conditions noted are these: human, in vivo.
Data set [9] can be described thus: Ratio of intracellular to extracellular cellular uptake in PMNC of patient with hematological malignancies at 200 mg administered 3 to 4 times a day measured by liquid chromatography-tandem mass spectroscopy. Conditions: human, in vivo.
Data set [10] relates to PBMC. The experiment in a line: Cellular uptake in PBMC of patient with hematological malignancies at 200 mg administered 3 to 4 times a day measured by liquid chromatography-tandem mass spectroscopy. The conditions noted are these: human, in vivo.
Data set [11] deals with PBMC. The experiment in a line: Ratio of intracellular to extracellular cellular uptake in PBMC of patient with hematological malignancies at 200 mg administered 3 to 4 times a day measured by liquid chromatography-tandem mass spectroscopy. Conditions: human, in vivo.
Another data set deals with Plasma. Description: Drug uptake in plasma of patient with hematological malignancies at 200 mg administered 3 to 4 times a day measured by liquid chromatography-tandem mass spectroscopy. The conditions noted are these: human, in vivo.
Data set [12] can be described thus: Cellular uptake in PMNC of patient with hematological malignancies at 200 mg administered 3 to 4 times a day measured by liquid chromatography-tandem mass spectroscopy. Conditions: human, in vivo.
Data set [13] in a line: Cellular uptake in RBC of patient with hematological malignancies at 200 mg administered 3 to 4 times a day measured by liquid chromatography-tandem mass spectroscopy. The conditions noted are these: human, in vivo.

As to `C[C@@H](c1ncncc1F)[C@](O)(Cn1cncn1)c1ccc(F)cc1F` [VORICONAZOLE], the “fold change (FC)” value in data set [1] is recorded as 8.5.
For orientation: Kp means tissue or fluid exposure divided by exposure in the circulation. On to `CCC(C)n1ncn(-c2ccc(N3CCN(c4ccc(OCC5COC(Cn6cncn6)(c6ccc(Cl)cc6Cl)O5)cc4)CC3)cc2)c1=O` (stereo not given) [ITRACONAZOLE], for which the results for the Kp in data set [2] and in data set [7] were 27.3 and 44.3, respectively. In addition, the Ratio in data set [3] came out at 3; in data set [4] it was 90.4; in data set [5], 18; in data set [6], 87.9.
With `OC(Cn1cncn1)(Cn1cncn1)c1ccc(F)cc1F` [FLUCONAZOLE], in data set [1], the “fold change (FC)” value is on record as 2.2.
On to `CC[C@@H]([C@H](C)O)n1ncn(-c2ccc(N3CCN(c4ccc(OC[C@@H]5CO[C@@](Cn6cncn6)(c6ccc(F)cc6F)C5)cc4)CC3)cc2)c1=O` [POSACONAZOLE], for which the Ratio in data set [8] is listed as 0.09; in [9] it was 7.66; in the data set on PBMC [11], 22.5. In addition, the Drug uptake in the data set on PBMC [10] was 12764 ng/mL; in the data set on Plasma it was 603.2 ng/mL; in [12] it was 4031 ng/mL; in data set [13], 50.8 ng/mL.
